Where only a bound is given, the exact number is not on record here.

Data set [1] concerns the target T1, GST fusion human Keap1 (amino acid residue: 325-624) protein (Homo sapiens, UniProt Q14145).
T1 construct: GST fusion human Keap1 (amino acid residue: 325-624) protein; purchased Protein tech Ag0779
Put plainly: Keap1-Nrf2 binding inhibition test (fluorescence polarization). The settings on record: compound concentration of 100 nM; read-out: inhibition rate. In a few lines: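 Fluorescence polarization with FITC-labelled Nrf2 peptide (FITC-Ahx-LDEETGEFL-NH2) and GST-human Keap1 (325-624) in 20 mM Tris pH 7.5, 150 mM NaCl, 0.05% Tween 20, 5 mM DTT, BSA; 30 min at room temperature, ex 482/em 530 nm. Percent inhibition at 100 nM compound, Keap1-free wells = 100%.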
On the technique in general: Fluorescence polarisation rises when a labelled molecule tumbles more slowly, as on binding a larger partner.

Data set [2] can be described thus: Metabolism test using human liver microsome fractions. In kind it is in vitro ADME. Particulars: human liver microsomes, test compound 10 μmol/L, NADPH and UDP-glucuronic acid, 37° C. Summed up: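 Compound depletion at 10 μmol/L final, 37 °C, followed by UV-HPLC of acetonitrile-quenched aliquots taken 0, 5, 10, 15, 20, 30 min; incubations contained microsomes (1 mg protein, human or monkey) with NADPH and UDPGA cofactors. Rate = slope over linear range.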
Background: Liver microsomes are vesicles of endoplasmic reticulum, rich in cytochrome P450 enzymes.

The test system of data set [3] is NQO1. The data set is described as follows: NQO1 enzyme induction test (in vitro) in Hepa1c1c7 cells. In kind it is cell-based. The settings on record: Mus musculus, Hepa-1c1c7, 48 h, concentration to elevate the NQO1 activity by 1.5 times, about 48 hours, read-out: EC150. Summed up: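 Mouse Hepa1c1c7 cells treated about 48 h with compound (0.1% DMSO final), then lysed. NQO1 activity read as MTT reduction at 540 nm with menadione substrate, 5 min at room temperature, and corrected for cell number by CellTiter-Glo. EC150 is the concentration raising NQO1 activity 1.5-fold.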

Data set [4] has as its system NQO1. The data set is described as follows: NQO1 expression induction test in mouse kidney (single administration). In kind it is in vivo. The settings on record: Mus musculus, po, 6 h, BALB/c mouse kidney, 6 hours after administration, ratio to control group. In a few lines:
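Female BALB/c mice received a single oral dose of compound in 0.5% methylcellulose, with untreated mice as controls. Six hours later, left-kidney NQO1 mRNA was measured by SYBR real-time RT-PCR normalised to GAPDH. Induction was expressed as the ratio of mean treated to mean control expression.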

T1 sequence (Q14145 325-624): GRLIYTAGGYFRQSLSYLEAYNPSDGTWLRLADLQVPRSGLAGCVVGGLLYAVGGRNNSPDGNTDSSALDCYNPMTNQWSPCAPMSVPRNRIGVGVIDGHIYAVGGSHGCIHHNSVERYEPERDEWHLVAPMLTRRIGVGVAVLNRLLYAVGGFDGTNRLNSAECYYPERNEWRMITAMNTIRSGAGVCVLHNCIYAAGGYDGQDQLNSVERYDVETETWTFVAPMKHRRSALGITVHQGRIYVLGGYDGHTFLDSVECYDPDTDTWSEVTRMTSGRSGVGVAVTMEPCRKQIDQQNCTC

For the molecule `CC[C@@H]1CN(Cc2cc(C(c3ccc4c(nnn4C)c3C)C(C)(C)C(=O)O)ccc2C)Cc2c(ccc3ncccc23)O1` (stereo partly drawn) [Example 18-(b), 3-(1,4-dimethyl-1H-benzo[d][1,2,3]triazol-5-yl)-3-(3-(((R)-4-ethyl-3,4-dihydro-[1,4]oxazepino[6,7-f]quinolin-2(1H)-yl)methyl)-4-methylphenyl)-2,2-dimethylpropanoic Acid], in data set [1], the inhibition at 0.1 µM is at least 50%. Further, the Human metabolic rate result in data set [2] was “E (metabolic rate≥250 pmol/min/mg protein)”. In addition, the EC (1.5-fold NQO1 activity) in the data set with NQO1 [3] fell in the range of 0.005 to 0.05 µM. Further, the fold induction at 30 mg/kg in the data set on NQO1 [4] lay within 3 to 6.
The corresponding values for `CC[C@@H]1CN(Cc2cc(C(CC(=O)O)c3ccc4c(nnn4C)c3C)ccc2C)Cc2cc3ncccc3cc2O1` (stereo partly drawn) [Example 56-(b), 3-(1,4-dimethyl-1H-benzo[d][1,2,3]triazol-5-yl)-3-(3-(((R)-2-ethyl-2,3-dihydro-[1,4]oxazepino[7,6-g]quinolin-4(5H)-yl)methyl)-4-methylphenyl)propanoic acid] are at least 50%, “E (metabolic rate≥250 pmol/min/mg protein)”, 0.0005 to 0.005 µM and 3 to 6.
Consider `CC[C@@H]1CN(Cc2cc(C(c3ccc4c(nnn4C)c3C)C(C)(C)C(=O)O)ccc2C)Cc2cc3c(cc2O1)SCC3` (stereo partly drawn) [Example 73-(b), 3-(1,4-dimethyl-1H-benzo[d][1,2,3]triazol-5-yl)-3-(3-(((R)-2-ethyl-2,3,7,8-tetrahydrothieno[2′,3′:4,5]benzo[1,2-f][1,4]oxazepin-4(5H)-yl)methyl)-4-methylphenyl)-2,2-dimethylpropanoic Acid], for which the inhibition at 0.1 µM in data set [1] is at least 50%. For the same molecule, the Human metabolic rate result in data set [2] is given as “C (150≤metabolic rate<200 pmol/min/mg protein)”. In addition, the EC (1.5-fold NQO1 activity) in the data set with NQO1 [3] lay in the range of 0.005 to 0.05 µM. Moreover, the fold induction at 20 mg/kg with NQO1 [4] is over 6.
As for `CC[C@@H]1CN(Cc2cccc(C(c3ccc4c(nnn4C)c3C)C(C)(C)C(=O)O)c2)Cc2cc3ncccc3cc2O1` (stereo partly drawn) [Example 79-(b), 3-(1,4-dimethyl-1H-benzo[d][1,2,3]triazol-5-yl)-3-(3-(((R)-2-ethyl-2,3-dihydro-[1,4]oxazepino[7,6-g]quinolin-4(5H)-yl)methyl)phenyl)-2,2-dimethylpropanoic Acid], in data set [1], the inhibition at 0.1 µM is at least 50%. Moreover, the Human metabolic rate entry in data set [2] is “E (metabolic rate≥250 pmol/min/mg protein)”. For the same molecule, the EC (1.5-fold NQO1 activity) in the data set with NQO1 [3] is 0.005 to 0.05 µM. Also, the fold induction at 20 mg/kg with NQO1 [4] lay in the range of 3 to 6.
`CC[C@@H]1CN(Cc2cc(C(c3ccc4c(nnn4C)c3C)C(C)(C)C(=O)O)ccc2C)Cc2cc3cn[nH]c3cc2O1` (stereo partly drawn) [Example 15-(b), 3-(1,4-dimethyl-1H-benzo[d][1,2,3]triazol-5-yl)-3-(3-(((R)-8-ethyl-1,5,7,8-tetrahydro-6H-[1,4]oxazepino[6,7-f]indazol-6-yl)methyl)-4-methylphenyl)-2,2-dimethylpropanoic Acid]: in data set [1], the inhibition at 0.1 µM was at least 50%. Besides, the Human metabolic rate result in data set [2] is “E (metabolic rate≥250 pmol/min/mg protein)”. Moreover, in the data set with NQO1 [3], the EC (1.5-fold NQO1 activity) lay within 0.0005 to 0.005 µM. The fold induction at 30 mg/kg with NQO1 [4] lay within 3 to 6.
Take `CC[C@@H]1CN(Cc2cc(C(c3ccc4c(nnn4C)c3C)C(C)(C)C(=O)O)ccc2C)Cc2cc3ccncc3cc2O1` (stereo partly drawn) [Example 52-(b), 3-(1,4-dimethyl-1H-benzo[d][1,2, 3]triazol-5-yl)-3-(3-(((R)-2-ethyl-2,3-dihydro-[1,4]oxazepino[6,7-g]isoquinolin-4 (5H)-yl)methyl)-4-methylphenyl)-2,2-dimethylpropanoic Acid]: in data set [1], the inhibition at 0.1 µM was at least 50%. The Human metabolic rate result in data set [2] was “C (150≤metabolic rate<200 pmol/min/mg protein)”. Also, the EC (1.5-fold NQO1 activity) with NQO1 [3] was 0.0005 to 0.005 µM. In addition, the fold induction at 30 mg/kg in the data set on NQO1 [4] is over 6.
As for `CC[C@@H]1CN(Cc2cc(C(c3ccc4c(nnn4C)c3C)C(C)(C)C(=O)O)ccc2C)Cc2cc3nccc(OC)c3cc2O1` (stereo partly drawn) [Example 70-(b), 3-(1,4-dimethyl-1H-benzo[d][1,2,3]triazol-5-yl)-3-(3-(((R)-2-ethyl-10-methoxy-2,3-dihydro-[1,4]oxazepino[7,6-g]quinolin-4(5H)-yl)methyl)-4-methylphenyl)-2,2-dimethylpropanoic Acid], in data set [1], the inhibition at 0.1 µM is at least 50%. Besides, the Human metabolic rate entry in data set [2] is on record as “E (metabolic rate≥250 pmol/min/mg protein)”. Besides, the EC (1.5-fold NQO1 activity) with NQO1 [3] lay in the range of 0.0005 to 0.005 µM. The fold induction at 20 mg/kg with NQO1 [4] is over 6.
As for `CC[C@@H]1CN(Cc2cc(C(c3ccc4c(nnn4C)c3C)C(C)(C)C(=O)O)ccc2C)Cc2cc3c(cc2O1)OC(C)(C)O3` (stereo partly drawn) [Example 61-(b), 3-(1,4-dimethyl-1H-benzo[d][1,2,3)triazol-5-yl)-3-(3-(((R)-6-ethyl-2,2-dimethyl-6,7-dihydro-(1,3]dioxolo[4′,5′:4,5]benzo[1,2-f][1,4]oxazepin-8(9H)-yl)methyl)-4-methylphenyl)-2,2-dimethylpropanoic Acid], in data set [1], the inhibition at 0.1 µM was at least 50%. In data set [2], the Human metabolic rate entry was “A (metabolic rate<100 pmol/min/mg protein)”. In addition, the EC (1.5-fold NQO1 activity) in the data set on NQO1 [3] is 0.005 to 0.05 µM. Further, the fold induction at 30 mg/kg in the data set with NQO1 [4] is 3 to 6.
For `CC[C@@H]1CN(Cc2cc(C(c3ccc4c(nnn4C)c3C)C(C)(C)C(=O)O)ccc2C)Cc2cc3c(cc2O1)CCC3` (stereo partly drawn) [Example 3-(b), 3-(1,4-dimethyl-1H-benzo[d][1,2,3]triazol-5-yl)-3-(3-(((R)-2-ethyl-2,3,5,7,8,9-hexahydro-4H-indeno[5,6-f][1,4]oxazepin-4-yl)methyl)-4-methylphenyl)-2,2-dimethylpropanoic Acid] the same measures were at least 50%, “C (150≤metabolic rate<200 pmol/min/mg protein)”, 0.005 to 0.05 µM and over 6.
For `CC[C@@H]1CN(Cc2cc(C(c3ccc4c(nnn4C)c3C)C(C)(C)C(=O)O)ccc2C)Cc2cc(F)c3ccccc3c2O1` (stereo partly drawn) [Example 49-(b), 3-(1,4-dimethyl-1H-benzo[d](1,2, 3)triazol-5-yl)-3-(3-(((R)-2-ethyl-7-fluoro-2,3-dihydronaphtho[2,1-f][1,4]oxazepin-4 (5H)-yl)methyl)-4-methylphenyl)-2,2-dimethylpropanoic Acid] the same measures were at least 50%, “B (100≤metabolic rate<150 pmol/min/mg protein)”, 0.0005 to 0.005 µM and over 6.
The corresponding values for `CC[C@@H]1CN(Cc2cc(C(c3ccc4c(nnn4C)c3C)C(C)(C)C(=O)O)ccc2C)Cc2ncc3ccccc3c2O1` (stereo partly drawn) [Example 25-(b), 3-(1,4-dimethyl-1H-benzo[d][1,2,3]triazol-5-yl)-3-(3-(((R)-2-ethyl-2,3-dihydro-[1,4]oxazepino[6,7-c]isoquinolin-4(5H)-yl)methyl)-4-methylphenyl)-2,2-dimethylpropanoic Acid] are at least 50%, “D (200≤metabolic rate<250 pmol/min/me protein)”, 0.0005 to 0.005 µM and over 6.

As a reminder, the inhibition is the drop in the measured response relative to a control, in per cent. The term fold induction denotes the signal under treatment as a multiple of the control signal.
